Test results from patent US20250127732A1 (AXSOME THERAPEUTICS, INC., priority 2018, published 2025).

Assays:
[1] = Part 3: randomized, double-blind, placebo-controlled multiple-dose trial of S- and R-bupropion with pharmacokinetic sampling (plasma concentrations Day 7); type: in vivo; conditions: human, 105 mg BID SR tablets oral, fasting, Day 7 at 3-4 hours after dosing, n = 15
Protocol: A randomized, double-blind, multiple-dose, placebo-controlled, parallel group trial was conducted to examine the safety and tolerability of the pure S-and R-enantiomers of bupropion, with pharmacokinetic sampling.

clinical = conditions: human, in vivo, po, 105 mg

Row | Mean concentration of bupropion [1] | AUC(0-t) at 12 h (clinical) | SMILES
1 | 15.1 ng/mL | – | C[C@@H](NC(C)(C)C)C(=O)c1cccc(Cl)c1 [R-bupropion, (R)-bupropion, reference compound]
2 | 170.9 ng/mL | 793 ng·h/mL | C[C@H](NC(C)(C)C)C(=O)c1cccc(Cl)c1 [S-bupropion, (S)-bupropion]
